Measurements as given in patent US9999221B2, “Herbicide combination containing pelargonic acid and defined ALS inhibitors” (BAYER CROPSCIENCE AKTIENGESELLSCHAFT, priority 2013, dated 2018).

Key:
Experiment in all cases: Post-emergence test, % damage
Type in all cases: in vivo
Settings in all cases: after 48 days
Trifolium repens = tested on: Trifolium repens
Excerpt: (§1) After 48 days, the degree of damage to the plants is rated in % damage in comparison to the development of the untreated control.

Festuca ovina = tested on: Festuca ovina
Excerpt: as §1

Chenopodium album = tested on: Chenopodium album
Excerpt: as §1

Plantago major = tested on: Plantago major
Excerpt: as §1

Taraxacum officinale = tested on: Taraxacum officinale
Excerpt: as §1

Poa annua = tested on: Poa annua
Excerpt: as §1

[1] = Iodosulfuron-methyl 1 g of active compound/ha
[2] = Iodosulfuron-methyl 1.25 g of active compound/ha
[3] = Iodosulfuron-methyl 2.5 g of active compound/ha
[4] = Iodosulfuron-methyl 10 g of active compound/ha
[5] = Pelargonic acid 10000 g of active compound/ha
[6] = Pelargonic acid 20000 g of active compound/ha
[7] = Pelargonic acid 30000 g of active compound/ha

4-iodo-2-[(4-methoxy-6-methyl-1,3,5-triazin-2-yl)carbamoylsulfamoyl]benzoate, sodium salt [Iodosulfuron-methyl]
herbicidal effect [%] (Trifolium repens; [1]): 18.3% | herbicidal effect [%] (Trifolium repens; [2]): 32% | herbicidal effect [%] (Trifolium repens; [3]): 45% | herbicidal effect [%] (Trifolium repens; [4]): 80% | herbicidal effect [%] (Festuca ovina; [1]): 0% | herbicidal effect [%] (Festuca ovina; [2]): 0% | herbicidal effect [%] (Festuca ovina; [3]): 0% | herbicidal effect [%] (Festuca ovina; [4]): 6.7% | herbicidal effect [%] (Chenopodium album; [1]): 0% | herbicidal effect [%] (Chenopodium album; [2]): 0% | herbicidal effect [%] (Chenopodium album; [3]): 10% | herbicidal effect [%] (Chenopodium album; [4]): 40% | herbicidal effect [%] (Plantago major; [1]): 0% | herbicidal effect [%] (Plantago major; [2]): 3% | herbicidal effect [%] (Plantago major; [3]): 30% | herbicidal effect [%] (Plantago major; [4]): 53.3% | herbicidal effect [%] (Taraxacum officinale; [1]): 18.3% | herbicidal effect [%] (Taraxacum officinale; [2]): 18% | herbicidal effect [%] (Taraxacum officinale; [3]): 42% | herbicidal effect [%] (Taraxacum officinale; [4]): 85% | herbicidal effect [%] (Poa annua; [1]): 0% | herbicidal effect [%] (Poa annua; [2]): 0% | herbicidal effect [%] (Poa annua; [3]): 0% | herbicidal effect [%] (Poa annua; [4]): 0%

CCCCCCCCC(=O)O [Pelargonic acid, nonanoic acid]
herbicidal effect [%] (Trifolium repens; [5]): 0% | herbicidal effect [%] (Trifolium repens; [6]): 0% | herbicidal effect [%] (Trifolium repens; [7]): 3.3% | herbicidal effect [%] (Festuca ovina; [5]): 0% | herbicidal effect [%] (Festuca ovina; [6]): 0% | herbicidal effect [%] (Festuca ovina; [7]): 6.7% | herbicidal effect [%] (Chenopodium album; [5]): 0% | herbicidal effect [%] (Chenopodium album; [6]): 10% | herbicidal effect [%] (Chenopodium album; [7]): 20% | herbicidal effect [%] (Plantago major; [5]): 0% | herbicidal effect [%] (Plantago major; [6]): 0% | herbicidal effect [%] (Plantago major; [7]): 13.3% | herbicidal effect [%] (Taraxacum officinale; [5]): 6.7% | herbicidal effect [%] (Taraxacum officinale; [6]): 7% | herbicidal effect [%] (Taraxacum officinale; [7]): 20% | herbicidal effect [%] (Poa annua; [5]): 0% | herbicidal effect [%] (Poa annua; [6]): 0% | herbicidal effect [%] (Poa annua; [7]): 0%
